This note sets out measurements from patent US20050164259A1, “Sequences” (priority 2001, published 2005).

The target in test [1] is T1, pyranosone dehydratase (PD) (Phanerodontia chrysosporium, UniProt P84193).
T1 construct: The cell-free extract of Phanerochaete crysosporium was brought up to 55% ammonium sulphate saturation; endogenous in cells; host or cells: Phanerochaete chrysosporium ATCC 32629 and ATCC 24725; Native enzyme purified from cell-free extract by ammonium sulphate fractionation, then the procedure of Gabriel et al. 1993
T1 sequence (P84193 8-900 limits assumed): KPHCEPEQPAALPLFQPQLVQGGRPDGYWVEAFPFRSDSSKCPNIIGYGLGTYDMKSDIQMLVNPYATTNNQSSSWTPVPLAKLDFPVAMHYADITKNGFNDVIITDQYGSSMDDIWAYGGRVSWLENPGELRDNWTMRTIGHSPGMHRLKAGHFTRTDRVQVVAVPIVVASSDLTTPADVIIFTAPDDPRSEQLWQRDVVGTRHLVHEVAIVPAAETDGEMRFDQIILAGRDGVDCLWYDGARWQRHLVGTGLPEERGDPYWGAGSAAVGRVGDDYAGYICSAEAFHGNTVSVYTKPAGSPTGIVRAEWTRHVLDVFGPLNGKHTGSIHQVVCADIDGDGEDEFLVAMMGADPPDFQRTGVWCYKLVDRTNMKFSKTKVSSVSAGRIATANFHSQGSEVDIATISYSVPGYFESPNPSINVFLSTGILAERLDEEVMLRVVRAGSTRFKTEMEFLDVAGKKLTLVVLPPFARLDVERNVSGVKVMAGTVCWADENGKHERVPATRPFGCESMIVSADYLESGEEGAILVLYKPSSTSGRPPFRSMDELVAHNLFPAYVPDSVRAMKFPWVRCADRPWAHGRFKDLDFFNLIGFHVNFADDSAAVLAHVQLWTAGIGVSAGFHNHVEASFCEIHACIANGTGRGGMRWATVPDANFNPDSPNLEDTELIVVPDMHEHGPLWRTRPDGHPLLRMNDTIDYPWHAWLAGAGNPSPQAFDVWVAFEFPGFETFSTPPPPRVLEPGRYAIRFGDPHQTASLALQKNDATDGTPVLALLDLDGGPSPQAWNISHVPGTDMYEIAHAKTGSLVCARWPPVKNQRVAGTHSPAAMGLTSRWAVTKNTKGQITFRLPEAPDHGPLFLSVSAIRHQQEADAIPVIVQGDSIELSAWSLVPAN
The test can be described thus: Conversion of AF or glucosone by pyranosone dehydratase, monitored at 226 nm. The format is biochemical, Phanerochaete chrysosporium. The following applies: for OD 226 nm using substance as substrate: 22° C., 5.5 hours.

The test system of a further test is sugar beet seeds. The test can be described thus: Laboratory germination of pelleted sugar beet seeds. Particulars: in words. The test is classed as in vivo. The text has this: (§1) Seeds were pelleted with standard P1 pelleting mass with (1,2) or without (7,8)Thiram.
(§2) Inner coating: 0.3 gai/U microthecin as a 0.5% solution in water or • 14.7 gai/U Hymexazol. • 60 gai/U Imidacloprid.
(§3) Standard metallic green seed cover film.

The subject of the next test is Aphanomyces. Nature of the test: Field emergence trial FEHCPO34 Aphanomyces, pelleted sugar beet seeds. The test is classed as in vivo. The following applies: pellets containing the substance; in words.
From the text: Based on these findings, the efficiency of microthecin was further investigated in a field emergence trial. The trial was sown relatively late giving it a higher chance for presence of the pathogen Aphanomyces in the trial field.
as §1, §2, §3
Trial place Bukkehave, D K. (4 reps, 200 seeds/plot)

The subject of test [2] is Aphanomyces cochlioides. Nature of the test: Agar plate inhibition zone test (PDA), microthecin solutions. The format is cell-based. The following applies: judged after 3-4 days of growth. How it is done:
(§4) Basic microthecin solution: 24 mg/ml Batch no. Mic20011016
(§5) All solutions were filtered through a 0.22 μm filter for sterilisation.
(§6) A circular plug (diameter 10 mm) of fresh mycelium was placed at the centre on a petri-dish (diameter 9 cm) containing PDA medium. (PDA=Potato dextrose agar Difco no. 213400). Wells with a diameter of 5 mm were cut along the periphery of the agar plate. In each well were placed 50 μl of a test solution. Alternatively, 20 μl of each test solution were placed directly on the agar along the periphery of the plate. Also, 50 μl of each test solution were placed directly on top of the fungal mycelium plug.
(§7) The agar plates were placed at room temperature in daylight, but protected from direct sunlight.
(§8) The reaction (inhibition zones) of the fungi to the test substance was judged as follows: […]

Another test concerns Cercospora beticola. The test is described as above. The format is cell-based. The following applies: judged after 3-4 weeks of growth. As for the experimental part: as §4, §5, §6, §7, §8
The subject of a further test is Pythium ultimum. The test is described as above. The following applies: judged after 1-2 days of growth. The format is cell-based. How it is done:
as §4, §5, §6, §7, §8

For the next test, the system named is Rhizoctonia solani. Described as above. The format is cell-based. The following applies: judged after 2-3 days of growth. As for the experimental part:
as §4, §5, §6, §7, §8

Test [3] relates to Aphanomyces cochlioides. The test can be described thus: Example 4 screening for growth inhibition on agar plates. The test is classed as cell-based. Particulars: very low concentrations; wells on PDA-agar plates, 3-5 days. How it is done:
The effect of microthecin on the plant pathogenic fungi Pythium ultimum, Rhizoctonia solani and Aphanomyces cochlioides in vitro was investigated by screening for growth inhibition of the pathogens on agar-plates (FIGS. 6, 7, 8).
(§9) In each case, microthecin was dissolved in water and placed in wells in the periphery. An agar block containing the pathogen was placed in the centre. The pathogens were allowed to grow out on the PDA-agar plates for 3-5 days.

Test [4] relates to Bacillus (B. Pumilus DS96.734, B. megaterium DS98.124). The test can be described thus: Example 4 similar tests with other microorganisms. The format is cell-based. How it is done: as §9
Test [5] concerns Pseudomonads (P. fluorescens DS96.578, P. mendocina DS98.124). The test can be described thus: Example 4 similar tests with other microorganisms. The format is cell-based. How it is done:
as §9

Setting [6] is: final substrate concentration 13.7 μg/ml reaction mixture.
The mark [7] stands for this setting: final substrate concentration 27.4 μg/ml reaction mixture.
[8] abbreviates: final substrate concentration 41.1 μg/ml reaction mixture.
[9] abbreviates: final substrate concentration 68.4 μg/ml reaction mixture.
Setting [10] is: final substrate concentration 95.8 μg/ml reaction mixture.
Setting [11] is: final substrate concentration 137 μg/ml reaction mixture.
Where [12] appears, read: final substrate concentration 205 μg/ml reaction mixture.

For `O=CC(=O)[C@@H](O)[C@H](O)[C@H](O)CO` [Glucosone, D-arabino-hexos-2-ulose], the “OD 226 nm using substance as substrate” value in test [1] (setting [6]) was 0.069; in test [1] (setting [7]), 0.104; in test [1] (setting [8]) it was 0.141; in test [1] (setting [9]) it was 0.238; in [1] (setting [10]), 0.323; in test [1] (setting [11]), 0.484. Moreover, the “OD 226 nm using substance as substrate” value in test [1] (setting [12]) was 0.634.

As to `Cc1cc(O)no1` [Hymexazol], the “4d>15mm germination” value in the test on sugar beet seeds was “low 4d>15mm germination”. In the test on Aphanomyces, the “speed of germination in field emergence trials” value is “germinate relatively slow”.

Turning to `O=C1C=CCOC1(O)CO` (stereo not drawn) [microthecin], the “minimum inhibition concentration (mic)” value in the test with Aphanomyces cochlioides [2] is on record as 1200 ppm; in the test with Cercospora beticola, 2400 ppm; with Pythium ultimum, 480 ppm; with Rhizoctonia solani, 240 ppm. For the same compound, in the test with Aphanomyces cochlioides [3], the “growth of Aphanomyces” value was “able to reduce the growth”. Moreover, the “effect on the growth of Bacillus” value in test [4] is reported as “no effect”. Also, in test [5], the “effect on Pseudomonads” value is recorded as “slightly affected”. Moreover, in the test with sugar beet seeds (inclusion in pellets), the “speed of laboratory germination (4d)” value was “decreases the speed of laboratory germination”. In the test on Aphanomyces, the “final germination in field” value is reported as “high final germination”. In the test with Aphanomyces, the “speed of germination in field emergence trials” value is recorded as “comparable with pellets only containing Thiram”.

With `O=C1CO[C@H](CO)[C@@H](O)[C@@H]1O` [AF, 1,5-anhydro-D-fructose], the “Vmax with AF relative to glucosone” value in test [1] (AF versus natural substrate glucosone) is listed as “around 4.7 times”. Also, the “OD 226 nm using substance as substrate” value was 0.308 in [1] (setting [6]); 0.534 in [1] (setting [7]); 0.76 in test [1] (setting [8]); 1.246 in test [1] (setting [9]); 1.764 in test [1] (setting [10]); 2.43 in test [1] (setting [11]). In addition, the “OD 226 nm using substance as substrate” value in test [1] (setting [12]) was 2.943.
